We go through four substances from publication PMC8481536, “Wells–Dawson phosphotungstates as mushroom tyrosinase inhibitors: a speciation study” (Scientific Reports, 2021).

The nature of data set [1]: Charge density (q/m, charges per addenda metal ion) of POT anions. It counts as physicochemical. To be noted: for Charge density q/m of the anion: Wells–Dawson POTs and their products; for Charge density q/m of POT product Hx[α2-P2W17O61](10−x)−, x = 3 / Charge density q/m of POT product Hx[α2-P2W17O61](10−x)−, x = 4: product formed from the educt at pH 6.8. The source says: The charge density of POMs, expressed in number of charges (q) per addenda metal ions (m), is a criterion to characterize the chaotropic behavior of POMs (Table S6)[49]–[53]. […] The activity of [P2W18]^6−, [P2W17]^10− and [P2W15]^12− solutions correlates with the amount of the dominant monolacunary anion [α2-P^V2W^VI17O61]^10− in Na-citrate buffer at pH 6.8 (Fig. 3, Scheme S1). For the unprotonated form of the active monolacunary Wells–Dawson anion [α2-P^V2W^VI17O61]^10− the q/m ratio is 0.59 (Table 2), however, the protonation of this anion in neutral solutions has previously been shown by electrochemical analysis in combination with theoretical calculations[47],[55]. For POMs the proton affinity difference between the terminal and bridging oxygen is around 11 kcal mol^−1[56], proving that the four oxygen atoms surrounding the lacuna are much more basic than the bridging and terminal O atoms (Fig. 1B), and thus prone to protonation. Electrospray-ionization mass spectrometry (ESI–MS) has already been successfully used for the protonation states assignment of Wells–Dawson POTs containing different heteroatoms. Consequently, ESI–MS has been applied to investigate the protonation state of monolacunary [α2-P^V2W^VI17O61]^10−. When recording ESI–MS for POMs in Na-citrate buffer, the relative intensity of citrate anion signals is almost 100%, suppressing POM signals. […] The spectra recorded in both solvents show signals for NaH4[α2-P^V2W^VI17O61]^5- at 838.0 and NaKH3[α2-P^V2W^VI17O61]^5- at 845.6 m/z, while species with lower protonation states have not been detected (Fig. S19). Therefore, the monolacunary anion [α2-P^V2W^VI17O61]^10− is present as the three-fold protonated anion H3[α2-P^V2W^VI17O61]^7- with a charge density of 0.41 and the four-fold protonated anion H4[α2-P^V2W^VI17O61]^6− with a charge density of 0.35. The predominant species in [P2W12]^12− is the wheel-shaped [P^V8W^VI48O184]^40− (23%), which can be protonated to H16[P^V8W^VI48O184]^24−[58] q/m = 0.5. Due to the compositional complexity of the hexalacunary anion it is impossible to accurately correlate its activity with the POTs’ charge density.
10 Summary of POT charge densities of Keggin and Wells-Dawson POTs
In order to facilitate comparison of the inhibitory capacities of the Keggin and Wells-Dawson POT samples tested in our laboratory against AbPPO4 and to obtain a structure-activity correlation, the charge densities (anionic charge per W addenda atom) of the species present […]
the charge densities, the following stability windows for POTs can be identified:
1) intact closed clusters: q/m ≈ 0.33 – 0.50
Structures with higher charge densities were not analyzed. Structures with a q/m value lower than 0.33 are prone to hydrolysis or reduction under suitable conditions, both leading to an increase in charge density.
2) lacunary clusters: q/m = 0.35 – 0.45
Structures with lower charge densities were not analyzed. Structures with a q/m value higher than 0.45 achieve stabilization by taking up protons for charge compensation. However, too […]
these pathways result in a decrease in charge density.
Overall, the preferred stable charge densities at neutral pH of both the intact and lacunary POTs […]
for intact clusters. This seems to be an intrinsic POT property as a combined result of 1) the reactivity of lacunary oxygen sites and 2) the hydrolytic susceptibility to hydroxide anions in aqueous solution in competition with electrostatic repulsion with the anionic POT charge. […]
metal centers in their oxygen-bound environment.
The scenario is different when looking at the POT interaction with the enzyme AbPPO4. Among […]
values show a clear correlation to the q/m values, with the lowest charge density corresponding to the highest protein affinity. But going to the larger Wells-Dawson archetype, comparing the active lacunary species H [PVWVI O ]4- (Keggin) and H [α -PV WVI O ](10-x)- (x = 3 or 4) (Wells- […]
charge densities. As stated in the main text, the basic inhibition effect shown by the Wells- […]

The next data set has as its system Ca^2+-ATPase. The arrangement: method as in PMID 29313547. To be noted: cited from earlier work.
The subject of a further data set is P-type ATPase. The arrangement: method as in PMID 29313547. As to conditions: cited from earlier work.
Another data set has as its system aquaporin-3. The arrangement: method as in PMID 32252345. As to conditions: cited from earlier work.

On to “K10[α2-P^V2W^VI17O61]·20H2O [[P2W17]^10−]”, for which, in data set [1], the “Charge density q/m of the anion” value was 0.59; the “Charge density q/m of POT product Hx[α2-P2W17O61](10−x)−, x = 3” value (“Charge density q/m … x = 3” for short) turned out to be 0.41; the “Charge density q/m of POT product Hx[α2-P2W17O61](10−x)−, x = 4” value (“Charge density q/m … x = 4” for short) worked out at 0.35.
As to “K6[α/β-P^V2W^VI18O62]·14H2O [[P2W18]^6−]”, the “Inhibition of Ca2+-ATPase” value in the data set on Ca^2+-ATPase was “inhibited”. Besides, in data set [1], the “Charge density q/m of the anion” value is recorded as 0.33; the “Charge density q/m … x = 3” value amounted to 0.41; the “Charge density q/m … x = 4” value is reported as 0.35. Also, in the data set with P-type ATPase, the “Inhibition of P-type ATPase” value is “inhibited”. In addition, the “Inhibition of aquaporin-3” value in the data set with aquaporin-3 is “inhibited”.
“(NH4)12[H2P^V2W^VI12O48]·24H2O [[P2W12]^12−]”: the “Inhibition of Ca2+-ATPase” value in the data set on Ca^2+-ATPase is recorded as “inhibited”. In addition, the “Charge density q/m of the anion” value was determined as 1.00 in data set [1] (listed as H2[PV2WVI12O48]12-) and 1 in data set [1] (listed as H2[P^V2W^VI12O48]^12−). For the same substance, in the data set with P-type ATPase, the “Inhibition of P-type ATPase” value is on record as “inhibited”. Further, the “Inhibition of aquaporin-3” value in the data set with aquaporin-3 is listed as “inhibited”.
On to K12[P^V2W^VI15O56]·24H2O [[P2W15]^12−], for which the “Charge density q/m of the anion” value in data set [1] (listed as [PV2WVI15O56]12-) turned out to be 0.80. The “Charge density q/m of the anion” value in data set [1] (listed as [P^V2W^VI15O56]^12−) is 0.8. Besides, in data set [1], the “Charge density q/m … x = 3” value amounted to 0.41 and the “Charge density q/m … x = 4” value is reported as 0.35.
